Assays:
[1] = biological target: T1, full-length beta-Catenin (Uniprot ID P35222) (Homo sapiens, UniProt P35222); assay: Fluorescence polarization IC50 (beta-catenin / 5FAM-TCF4 10-53 competition); assay type: binding; conditions: fluorescence polarization; read-out: beta-Catenin FP IC50
T1 construct: 10 nM full-length beta-Catenin (Uniprot ID P35222)
T1 sequence (P35222 1-781): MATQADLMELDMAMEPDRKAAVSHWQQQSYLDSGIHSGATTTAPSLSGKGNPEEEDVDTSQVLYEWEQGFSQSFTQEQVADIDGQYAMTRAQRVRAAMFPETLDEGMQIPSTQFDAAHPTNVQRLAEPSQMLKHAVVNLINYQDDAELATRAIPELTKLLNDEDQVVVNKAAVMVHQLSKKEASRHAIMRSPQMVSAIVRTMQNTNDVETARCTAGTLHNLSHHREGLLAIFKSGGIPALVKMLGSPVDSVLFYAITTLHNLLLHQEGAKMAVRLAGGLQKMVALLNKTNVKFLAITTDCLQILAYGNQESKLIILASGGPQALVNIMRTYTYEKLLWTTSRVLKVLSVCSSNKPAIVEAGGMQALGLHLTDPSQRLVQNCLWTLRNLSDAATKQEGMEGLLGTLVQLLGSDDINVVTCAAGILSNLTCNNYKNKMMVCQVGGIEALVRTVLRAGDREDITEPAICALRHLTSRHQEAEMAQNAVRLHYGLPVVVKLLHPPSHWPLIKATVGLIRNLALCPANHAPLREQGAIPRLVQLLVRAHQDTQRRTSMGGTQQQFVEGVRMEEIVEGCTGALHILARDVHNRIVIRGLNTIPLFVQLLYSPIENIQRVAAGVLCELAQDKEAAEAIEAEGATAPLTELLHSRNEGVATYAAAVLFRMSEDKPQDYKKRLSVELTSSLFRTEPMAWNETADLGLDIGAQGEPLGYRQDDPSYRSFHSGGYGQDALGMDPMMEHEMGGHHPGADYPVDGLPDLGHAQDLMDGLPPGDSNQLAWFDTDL

[2] = biological target: T2, beta-catenin/TCF4 engagement (Homo sapiens, UniProt P35222); assay: Nano-BRET target engagement assay (B-cat-Halo & TCF4-Luc in HEK293 cells); assay type: cell-based; conditions: absolute IC50; read-out: NanoBRET Abs IC50
T2 construct: expressed in transfected cells; host or cells: HEK293
T2 sequence (P35222 1-781): T1 sequence (P35222 1-781)

Compound CC(=O)N1CCC[C@]12CC=CCCCC1(CCCC=CCCCOC(=O)N3CC[C@@](C(=O)N[C@@H](Cc4ccsc4)C(=O)N[C@@H](Cc4csc5ccccc45)C(=O)N[C@@H](CCC(N)=O)C(N)=O)(C3)NC(=O)[C@H](CC(N)=O)NC(=O)[C@H](Cc3ccccc3)NC(=O)[C@H](C)NC(=O)[C@H](C)NC(=O)[C@H]([C@@H](C)O)NC(=O)[C@H](CC(N)=O)NC1=O)NC(=O)[C@H](CC(C)(C)C)NC(=O)[C@H](CC(=O)O)NC2=O (stereo partly drawn) [I-1565, Ac-PL3-Asp-Npg-B5-Asn-Thr-Ala-Ala-Phe-Asn-PyrS2-3Thi-BztA-Gln-NH2] has an IC50 [1] of 148 nM and an IC50 [2] of over 20000 nM.

CC(=O)N1CCC[C@]12CC=CCCCC1(CCCC=CCCCOC(=O)N3CC[C@@](C(=O)N[C@@H](Cc4ccsc4)C(=O)N[C@@H](Cc4csc5ccccc45)C(=O)N[C@@H](CCC(N)=O)C(N)=O)(C3)NC(=O)[C@H](CC(N)=O)NC(=O)[C@H](Cc3ccccc3)NC(=O)[C@H](C)NC(=O)[C@H](C)NC(=O)[C@H](CCC(N)=O)NC(=O)[C@H](CC(N)=O)NC1=O)NC(=O)[C@H](CC(C)(C)C)NC(=O)[C@H](CC(=O)O)NC2=O (stereo partly drawn) [I-1566, Ac-PL3-Asp-Npg-B5-Asn-Gln-Ala-Ala-Phe-Asn-PyrS2-3Thi-BztA-Gln-NH2] showed an IC50 [1] of 231 nM and an IC50 [2] of over 20000 nM.

For CC(=O)N1CCC[C@]12CC=CCCCC1(CCCC=CCCCOC(=O)N3CC[C@@](C(=O)N[C@@H](Cc4ccsc4)C(=O)N[C@@H](Cc4csc5ccccc45)C(=O)N[C@@H](CCC(N)=O)C(N)=O)(C3)NC(=O)[C@H](CC(N)=O)NC(=O)[C@H](Cc3ccccc3)NC(=O)[C@H](C)NC(=O)[C@H](C)NC(=O)[C@H](CCC(N)=O)NC(=O)[C@H](CC(N)=O)NC1=O)NC(=O)[C@H](CC(C)(C)C)NC(=O)[C@H](CC(=O)O)NC2=O (stereo partly drawn) [I-1567, Ac-PL3-Asp-Npg-B5-Asn-Gln-Ala-Ala-Phe-Asn-PyrS2-3Thi-BztA-Gln-NH2], the IC50 [1] was 182 nM and the IC50 [2] was over 20000 nM.

CC(=O)N1CCC[C@]12CC=CCCCC1(CCCC=CCCCOC(=O)N3CC[C@@](C(=O)N[C@@H](Cc4ccccc4Cl)C(=O)N[C@@H](Cc4csc5ccccc45)C(=O)N[C@@H](CCC(N)=O)C(N)=O)(C3)NC(=O)[C@H](CC(N)=O)NC(=O)[C@H](Cc3ccccc3)NC(=O)[C@H](C)NC(=O)[C@H](C)NC(=O)[C@H](CNCC(=O)O)NC(=O)[C@H](CC(=O)O)NC1=O)NC(=O)[C@H](CC(C)(C)C)NC(=O)[C@H](CC(=O)O)NC2=O (stereo partly drawn) [I-1572, Ac-PL3-Asp-Npg-B5-Asp-GA-Ala-Ala-Phe-Asn-PyrS2-2C1F-BztA-Gln-NH2] was tested, and the IC50 [1] was 20 nM and the IC50 [2] was over 20000 nM.

C[C@@H]1NC(=O)[C@H](C)NC(=O)[C@H](CC(=O)O)NC(=O)[C@H](CC(=O)O)NC(=O)C2(CCCC=CCCCOC(=O)N3CC[C@@](C(=O)N[C@@H](Cc4ccsc4)C(=O)N[C@@H](Cc4csc5ccccc45)C(=O)N[C@@H](CCC(N)=O)C(N)=O)(C3)NC(=O)[C@H](CC(N)=O)NC(=O)[C@H](Cc3ccccc3)NC1=O)CCCC=CCCC(=O)OC1CC(C(=O)N[C@@H](CC(=O)O)C(=O)N[C@@H](CC(C)(C)C)C(=O)N2)N(S(C)(=O)=O)C1 (stereo partly drawn) [I-1574, MeSO2-HypEs5-Asp-Npg-B5-Asp-Asp-Ala-Ala-Phe-Asn-PyrS2-3Thi-BztA-Gln-NH2] showed an IC50 [1] of 15 nM and an IC50 [2] of over 20000 nM.

CC(=O)N1CCC[C@]12CC=CCCCC1(CCCC=CCCCOC(=O)N3CC[C@@](C(=O)N[C@@H](Cc4ccsc4)C(=O)N[C@@H](Cc4csc5ccccc45)C(=O)N[C@@H](CCC(N)=O)C(N)=O)(C3)NC(=O)[C@H](CC(N)=O)NC(=O)[C@H](Cc3ccccc3)NC(=O)[C@H](C)NC(=O)[C@H](C)NC(=O)[C@H](Cc3cccc(-c4nnn[nH]4)c3)NC(=O)[C@H](CC(=O)O)NC1=O)NC(=O)[C@H](CC(C)(C)C)NC(=O)[C@H](CC(=O)O)NC2=O (stereo partly drawn) [I-1578, Ac-PL3-Asp-Npg-B5-Asp-3TzF-Ala-Ala-Phe-Asn-PyrS2-3Thi-BztA-Gln-NH2] was tested, and the IC50 [1] was 11 nM and the IC50 [2] was over 20000 nM.

In the case of CC(=O)N1CCC[C@]12CC=CCCCC1(CCCC=CCCCOC(=O)N3CC[C@@](C(=O)N[C@@H](Cc4ccsc4)C(=O)N[C@@H](Cc4csc5ccccc45)C(=O)N[C@@H](CCC(N)=O)C(N)=O)(C3)NC(=O)[C@H](CC(N)=O)NC(=O)[C@H](Cc3ccccc3)NC(=O)[C@H](C)NC(=O)[C@H](C)NC(=O)[C@H](Cc3ccc(-c4nnn[nH]4)cc3)NC(=O)[C@H](CC(=O)O)NC1=O)NC(=O)[C@H](CC(C)(C)C)NC(=O)[C@H](CC(=O)O)NC2=O (stereo partly drawn) [I-1579, Ac-PL3-Asp-Npg-B5-Asp-4TzF-Ala-Ala-Phe-Asn-PyrS2-3Thi-BztA-Gln-NH2], the IC50 [1] is reported as 39 nM and the IC50 [2] is reported as over 20000 nM.

CC(=O)N1CCC[C@]12CC=CCCCC1(CCCC=CCCCOC(=O)N3CC[C@@](C(=O)N[C@@H](Cc4ccccc4)C(=O)N[C@@H](Cc4csc5ccccc45)C(=O)N[C@@H](CCC(N)=O)C(N)=O)(C3)NC(=O)[C@H](CC(N)=O)NC(=O)[C@H](Cc3ccccc3)NC(=O)[C@H](C)NC(=O)[C@H](CCCCNC(C)C)NC(=O)[C@H]([C@@H](C)O)NC(=O)[C@H](CC(=O)O)NC1=O)NC(=O)[C@H](CC(C)(C)C)NC(=O)[C@H](CC(N)=O)NC2=O (stereo partly drawn) [I-1602, Ac-PL3-Asn-Npg-B5-Asp-Thr-iPrLys-Ala-Phe-Asn-PyrS2-Phe-BztA-Gln-NH2] was tested, and the IC50 [1] was 362 nM and the IC50 [2] was over 20000 nM.

With CC(=O)N1CCC[C@]12CC=CCCCC1(CCCC=CCCCOC(=O)N3CC[C@@](C(=O)N[C@@H](Cc4ccccc4Cl)C(=O)N[C@@H](Cc4csc5ccccc45)C(=O)N[C@@H](CCCN4CCC(F)(F)CC4)C(N)=O)(C3)NC(=O)[C@H]([C@@H](C)O)NC(=O)[C@H](Cc3ccccc3)NC(=O)[C@H](C)NC(=O)[C@H](C)NC(=O)[C@H](CN(CC(=O)O)CC(F)(F)F)NC(=O)[C@H](CC(=O)O)NC1=O)NC(=O)[C@H](CC(C)(C)C)NC(=O)[C@H](CC(=O)O)NC2=O (stereo partly drawn) [I-1607, Ac-PL3-Asp-Npg-B5-Asp-TfeGA-Ala-Ala-Phe-Thr-PyrS2-2C1F-BztA-F2PipNva-NH2] the IC50 [1] was 49 nM and the IC50 [2] was 11900 nM.

CC(=O)N1CCC[C@]12CC=CCCCC1(CCCC=CCCCOC(=O)N3CC[C@@](C(=O)N[C@@H](Cc4ccccc4C(F)(F)F)C(=O)N[C@@H](Cc4csc5ccccc45)C(=O)N[C@@H](CCCN4CCC(F)(F)CC4)C(N)=O)(C3)NC(=O)[C@H](CC(C)C)NC(=O)[C@H](Cc3ccccc3)NC(=O)[C@H](C)NC(=O)[C@H](C)NC(=O)[C@H](Cc3cccc(C(=O)O)c3)NC(=O)[C@H](CC(=O)O)NC1=O)NC(=O)[C@H](CC(C)(C)C)NC(=O)[C@H](CC(=O)O)NC2=O (stereo partly drawn) [I-1608, Ac-PL3-Asp-Npg-B5-Asp-3COOHF-Ala-Ala-Phe-Leu-PyrS2-2F3MeF-BztA-F2PipNva-NH2] showed an IC50 [1] of 76 nM and an IC50 [2] of 15100 nM.

In the case of CC(=O)N1CCC[C@]12CC=CCCCC1(CCCC=CCCCOC(=O)N3CC[C@@](C(=O)N[C@@H](Cc4ccccc4Cl)C(=O)N[C@@H](Cc4csc5ccccc45)C(=O)N[C@@H](CCCN4CCOCC4)C(N)=O)(C3)NC(=O)[C@H]([C@@H](C)O)NC(=O)[C@H](Cc3ccccc3)NC(=O)[C@H](C)NC(=O)[C@H](C)NC(=O)[C@H](CN(CC(=O)O)CC(F)(F)F)NC(=O)[C@H](CC(=O)O)NC1=O)NC(=O)[C@H](CC(C)(C)C)NC(=O)[C@H](CC(=O)O)NC2=O (stereo partly drawn) [I-1609, Ac-PL3-Asp-Npg-B5-Asp-TfeGA-Ala-Ala-Phe-Thr-PyrS2-2C1F-BztA-MorphNva-NH2], the IC50 [1] is reported as 15 nM and the IC50 [2] is reported as 6700 nM.

In the case of CC(=O)N1CCC[C@]12CC=CCCCC1(CCCC=CCCCOC(=O)N3CC[C@@](C(=O)N[C@@H](Cc4ccccc4C(F)(F)F)C(=O)N[C@@H](Cc4csc5ccccc45)C(=O)N[C@@H](CCCN4CCOCC4)C(N)=O)(C3)NC(=O)[C@H](CC(C)C)NC(=O)[C@H](Cc3ccccc3)NC(=O)[C@H](C)NC(=O)[C@H](C)NC(=O)[C@H](Cc3cccc(C(=O)O)c3)NC(=O)[C@H](CC(=O)O)NC1=O)NC(=O)[C@H](CC(C)(C)C)NC(=O)[C@H](CC(=O)O)NC2=O (stereo partly drawn) [I-1610, Ac-PL3-Asp-Npg-B5-Asp-3COOHF-Ala-Ala-Phe-Leu-PyrS2-2F3MeF-BztA-MorphNva-NH2], the IC50 [1] is reported as 19 nM and the IC50 [2] is reported as 4100 nM.

In the case of CC(=O)N1CCC[C@]12CC=CCCCC1(CCCC=CCCCOC(=O)N3CC[C@@](C(=O)N[C@@H](Cc4ccccc4Cl)C(=O)N[C@@H](Cc4csc5ccccc45)C(=O)N[C@@H](CC(=O)N4CCN(C)CC4)C(N)=O)(C3)NC(=O)[C@H]([C@@H](C)O)NC(=O)[C@H](Cc3ccccc3)NC(=O)[C@H](C)NC(=O)[C@H](C)NC(=O)[C@H](CN(CC(=O)O)CC(F)(F)F)NC(=O)[C@H](CC(=O)O)NC1=O)NC(=O)[C@H](CC(C)(C)C)NC(=O)[C@H](CC(=O)O)NC2=O (stereo partly drawn) [I-1611, Ac-PL3-Asp-Npg-B5-Asp-TfeGA-Ala-Ala-Phe-Thr-PyrS2-2C1F-BztA-MePpzAsn-NH2], the IC50 [1] is reported as 10 nM and the IC50 [2] is reported as 9800 nM.

Source: patent US20240116985A1, “STAPLED PEPTIDES AND METHODS THEREOF” (priority 2020, published 2024)
